Where “and” joins values, the source holds several entries; their conditions need not be identical. Equal values may be shown once. Toxic doses and inconclusive results are not listed. Cut-off read from the data, not from the text of the source: active = T/C of 150% or more; inactive = T/C below 125%.
Tested on: L1210 leukemia ip in BDF1 mice, survival T/C
Experiment: NCI In Vivo Anticancer Drug Screen. Data for tumor model L1210 Leukemia (intraperitoneal) in B6D2F1 (BDF1) mice
Settings: endpoint: mean survival time, higher = longer survival
Procedure, shortened: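 Tumor was transplanted into mice, which were then dosed with test compound or vehicle alone. Survival was recorded for each group, and the treated figure was expressed relative to the control figure.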

[1] = dose: 100.0 mg/kg/injection, schedule: Q04DX003 (ip), vehicle: Klucel (hydroxypropylcellulose) (HPC)
[2] = dose: 200.0 mg/kg/injection, schedule: Q04DX003 (ip), vehicle: Klucel (hydroxypropylcellulose) (HPC)
[3] = dose: 100.0 mg/kg/injection, schedule: Q01DX009 (ip), vehicle: Klucel (hydroxypropylcellulose) (HPC)
[4] = dose: 100.0 mg/kg/injection, schedule: Q04DX003 (ip), vehicle: saline with Tween-80
[5] = dose: 200.0 mg/kg/injection, schedule: Q04DX003 (ip), vehicle: saline with Tween-80
[6] = dose: 400.0 mg/kg/injection, schedule: Q04DX003 (ip), vehicle: saline with Tween-80
[7] = dose: 200.0 mg/kg/injection, schedule: Q01DX009 (ip), vehicle: Klucel (hydroxypropylcellulose) (HPC)
[8] = dose: 400.0 mg/kg/injection, schedule: Q01DX009 (ip), vehicle: Klucel (hydroxypropylcellulose) (HPC)

Measured: T/C

CC(C)[C@](O)(C(=O)OCC1=CC[N+]2([O-])CC[C@@H](O)[C@@H]12)[C@H](C)O (stereo partly specified)
inactive: dose: 6.2 mg/kg/injection, schedule: Q01DX009 (ip), vehicle: water 96 % of control | dose: 8.0 mg/kg/injection, schedule: Q03HX024 (ip), vehicle: water 91 % of control | dose: 12.5 mg/kg/injection, schedule: Q01DX009 (ip), vehicle: water 96 % of control | dose: 16.0 mg/kg/injection, schedule: Q03HX008 (ip), vehicle: water 101 % of control | dose: 16.0 mg/kg/injection, schedule: Q03HX016 (ip), vehicle: water 101 % of control | dose: 16.0 mg/kg/injection, schedule: Q03HX024 (ip), vehicle: water 96 % of control | dose: 25.0 mg/kg/injection, schedule: Q01DX009 (ip), vehicle: saline 90 % of control | dose: 25.0 mg/kg/injection, schedule: Q01DX009 (ip), vehicle: water 98 % of control | dose: 32.0 mg/kg/injection, schedule: Q03HX008 (ip), vehicle: water 99 % of control | dose: 32.0 mg/kg/injection, schedule: Q03HX016 (ip), vehicle: water 94 % of control | dose: 32.0 mg/kg/injection, schedule: Q03HX024 (ip), vehicle: water 95 % of control | dose: 50.0 mg/kg/injection, schedule: Q01DX009 (ip), vehicle: saline 93 % of control | dose: 50.0 mg/kg/injection, schedule: Q01DX009 (ip), vehicle: water 123 % of control | dose: 64.0 mg/kg/injection, schedule: Q01DX009 (ip), vehicle: saline 99 % of control | dose: 64.0 mg/kg/injection, schedule: Q01DX009 (ip), vehicle: water 97 % of control | dose: 64.0 mg/kg/injection, schedule: Q03HX008 (ip), vehicle: water 97 % of control | dose: 64.0 mg/kg/injection, schedule: Q03HX016 (ip), vehicle: water 94 % of control | dose: 64.0 mg/kg/injection, schedule: Q03HX024 (ip), vehicle: water 99 % of control | dose: 64.0 mg/kg/injection, schedule: Q04DX003 (ip), vehicle: water 97 % of control | dose: 100.0 mg/kg/injection, schedule: Q01DX009 (ip), vehicle: saline 96 % of control | dose: 100.0 mg/kg/injection, schedule: Q01DX009 (ip), vehicle: water 110 % of control | dose: 100.0 mg/kg/injection, schedule: Q04DX002 (ip), vehicle: saline 104 % of control | dose: 128.0 mg/kg/injection, schedule: Q01DX001 (ip), vehicle: water 98 % of control | dose: 128.0 mg/kg/injection, schedule: Q01DX009 (ip), vehicle: saline 103 % of control | dose: 128.0 mg/kg/injection, schedule: Q01DX009 (ip), vehicle: water 108 % of control | dose: 128.0 mg/kg/injection, schedule: Q01DX009 (sc), vehicle: water 95 % of control | dose: 128.0 mg/kg/injection, schedule: Q03HX008 (ip), vehicle: water 101 % of control | dose: 128.0 mg/kg/injection, schedule: Q03HX016 (ip), vehicle: water 99 % of control | dose: 128.0 mg/kg/injection, schedule: Q03HX024 (ip), vehicle: water 110 % of control | dose: 128.0 mg/kg/injection, schedule: Q04DX003 (ip), vehicle: water 105 % of control | dose: 128.0 mg/kg/injection, schedule: Q08DX002 (ip), vehicle: water 95 % of control | dose: 200.0 mg/kg/injection, schedule: Q01DX009 (ip), vehicle: water 117 % of control | dose: 200.0 mg/kg/injection, schedule: Q04DX002 (ip), vehicle: saline 123 % of control | dose: 256.0 mg/kg/injection, schedule: Q01DX001 (ip), vehicle: water 99 % of control | dose: 256.0 mg/kg/injection, schedule: Q01DX009 (ip), vehicle: saline 101 % of control | dose: 256.0 mg/kg/injection, schedule: Q01DX009 (ip), vehicle: water 117 % of control | dose: 256.0 mg/kg/injection, schedule: Q01DX009 (oral), vehicle: water 103 % of control | dose: 256.0 mg/kg/injection, schedule: Q01DX009 (sc), vehicle: water 97 % of control | dose: 256.0 mg/kg/injection, schedule: Q03HX008 (ip), vehicle: water 94 % of control | dose: 256.0 mg/kg/injection, schedule: Q04DX003 (ip), vehicle: water 100 % of control | dose: 256.0 mg/kg/injection, schedule: Q08DX002 (ip), vehicle: water 101 % of control | dose: 400.0 mg/kg/injection, schedule: Q01DX009 (ip), vehicle: saline 98 % of control | dose: 400.0 mg/kg/injection, schedule: Q04DX002 (ip), vehicle: saline 120 % of control | dose: 512.0 mg/kg/injection, schedule: Q01DX001 (ip), vehicle: water 101 % of control | dose: 512.0 mg/kg/injection, schedule: Q01DX009 (ip), vehicle: water 105 % of control | dose: 512.0 mg/kg/injection, schedule: Q01DX009 (oral), vehicle: water 94 % of control | dose: 512.0 mg/kg/injection, schedule: Q01DX009 (sc), vehicle: water 104 % of control | dose: 512.0 mg/kg/injection, schedule: Q04DX003 (ip), vehicle: water 100 % of control | dose: 512.0 mg/kg/injection, schedule: Q08DX002 (ip), vehicle: water 110 % of control | dose: 800.0 mg/kg/injection, schedule: Q01DX009 (ip), vehicle: saline 111 % of control | dose: 1024.0 mg/kg/injection, schedule: Q01DX001 (ip), vehicle: water 111 % of control | dose: 1024.0 mg/kg/injection, schedule: Q01DX009 (ip), vehicle: saline 104 % of control | dose: 1024.0 mg/kg/injection, schedule: Q01DX009 (oral), vehicle: water 108 % of control | dose: 1024.0 mg/kg/injection, schedule: Q04DX003 (ip), vehicle: water 119 % of control | dose: 1024.0 mg/kg/injection, schedule: Q08DX002 (ip), vehicle: water 117 % of control

COc1cc([C@@H]2c3cc4c(cc3[C@H](OC(C)=O)[C@H]3COC(=O)[C@@H]23)OCO4)cc(OC)c1OC
inactive: dose: 33.0 mg/kg/injection, schedule: Q01DX009 (ip), vehicle: saline with Tween-80 97 % of control | [1] 98 % of control | [2] 90 % of control

COC1OC2COc3ccccc3OC2C(NC#N)C1OC (stereo unspecified)
inactive: dose: 25.0 mg/kg/injection, schedule: Q01DX009 (ip), vehicle: Klucel (hydroxypropylcellulose) (HPC) 102 % of control | dose: 50.0 mg/kg/injection, schedule: Q01DX009 (ip), vehicle: Klucel (hydroxypropylcellulose) (HPC) 96 % of control | [3] 93 % of control and 87 % of control

CN(C)C(=O)Nc1cccc(OC(=O)NC2CCCCCCC2)c1
inactive: [4] 91 % of control | [5] 100 % of control | [6] 96 % of control

ClC1OC(Cl)(Cl)C(Cl)(Cl)OC1(Cl)Cl (stereo unspecified)
inactive: [3] 103 % of control | [1] 107 % of control | [7] 93 % of control | [2] 94 % of control | [8] 101 % of control | dose: 400.0 mg/kg/injection, schedule: Q04DX003 (ip), vehicle: Klucel (hydroxypropylcellulose) (HPC) 96 % of control

CCCCS(=O)(=O)N(CC)CC
inactive: dose: 100.0 mg/kg/injection, schedule: Q01DX009 (ip), vehicle: carboxymethylcellulose (CMC) 109 % of control | dose: 200.0 mg/kg/injection, schedule: Q01DX009 (ip), vehicle: carboxymethylcellulose (CMC) 96 % of control

COC(C)c1nnnn1C (stereo unspecified)
inactive: [4] 97 % of control | [5] 98 % of control | [6] 101 % of control

O=C(CC1=CCCCC1)c1ccccc1
inactive: [3] 103 % of control | [7] 100 % of control | [8] 97 % of control

CC(=O)NC1C(OCc2ccccc2)OC(COC(c2ccccc2)(c2ccccc2)c2ccccc2)C(N=[N+]=[N-])C1OCc1ccccc1 (stereo unspecified)
inactive: dose: 100.0 mg/kg/injection, schedule: Q01DX001 (ip), vehicle: saline with Tween-80 86 % of control | dose: 200.0 mg/kg/injection, schedule: Q01DX001 (ip), vehicle: saline with Tween-80 86 % of control | dose: 400.0 mg/kg/injection, schedule: Q01DX001 (ip), vehicle: saline with Tween-80 102 % of control

— PubChem BioAssay AID248 (DTP/NCI, 2004)
